Assay results reported in US11401254B2, “Substituted thiophenecarboxamides and analogues as antibacterials agents” (Bayer Aktiengesellschaft, priority 2018, dated 2022).

What was measured:
[1] = Log P by HPLC on reversed phase columns (EEC directive 79/831 Annex V.A8); type: physicochemical; settings: for chromatographic logP: reversed phase HPLC columns
Method: In the above tables, measurement of Log P values was performed according to EEC directive 79/831 Annex V.A8 by HPLC (High Performance Liquid Chromatography) on reversed phase columns with the following methods: • ^[a]
If more than one Log P value is available within the same method, all the values are given and separated by “+”.
Calibration was done with straight-chain alkan2-ones (with 3 to 16 carbon atoms) with known Log P values (measurement of Log P values using retention times with linear interpolation between successive alkanones). Lambda-max-values were determined using UV-spectra from 200 nm to 400 nm and the peak values of the chromatographic signals.

[2] = system: Xanthomonas campestris pv. campestris; experiment: Xanthomonas campestris pv. campestris in vitro cell test (bacteria growth in liquid culture); type: cell-based; settings: 20 ppm of tested compound; 24 h of incubation
Method: Example A: Xanthomonas Campestris pv. Campestris In Vitro Cell Test
Culture medium: LB broth medium (Luria Broth Miller) Sigma
Inoculum: bacteria suspension
Compounds to be tested were solubilized in DMSO and the solution used to prepare the required range of concentrations. The final concentration of DMSO used in the assay was ≤1%.
Inoculum was prepared from a pre-culture of bacteria grown in liquid medium and diluted to the desired optical density (OD).
Compounds were evaluated for their ability to inhibit bacteria growth in liquid culture assay. The compounds were added in the desired concentrations to culture medium containing the bacteria suspension. After 24 h of incubation, the efficacy of compounds was determined by spectrometric measurement of bacteria growth. Inhibition was determined by comparing the absorbance values in wells containing the compounds with the absorbance in control wells without compounds.

[3] = method [a]: LC-UV, acidic range, 0.1% formic acid in water and acetonitrile as eluent
[4] = value given in preparation example, method variant not stated

| Compound | LogP [1, 3] | also measured |
| --- | --- | --- |
| Cc1c(C(=O)NC(C(=O)OC2COC2)C(C)C)sc(Br)c1Br (stereo not drawn) [I.16] | 3.58^[a] |  |
| CC[C@H](C)[C@H](NC(=O)c1sc(Cl)c(Cl)c1C)C(=O)OC [I.32] |  | direct activity (inhibition of bacteria growth) [2]: no direct activity |
| CCOC(=O)C(CC(C)C)NC(=O)c1sc(Br)c(Br)c1C (stereo not drawn) [I.68] | 4.66^[a] |  |
| Cc1c(C(=O)NC(C(=O)OC(C)C)C(C)C)sc(Br)c1Br (stereo not drawn) [I.49] | 4.77^[a] | direct activity (inhibition of bacteria growth) [2]: no direct activity |
| CCOC(=O)C(NC(=O)c1sc(Cl)c(Cl)c1I)C(C)C (stereo not drawn) [VIa.21] | 4.85^[a] |  |
| CCOC(=O)CNC(=O)c1sc(Cl)c(Cl)c1C [I.03, ethyl N-[(4,5-dichloro-3-methyl-2-thienyl)carbonyl]glycinate] |  | direct activity (inhibition of bacteria growth) [2]: no direct activity; chromatographic logP [1, 3]: 2.9; chromatographic logP [1, 4]: 2.95 |
| Cc1c(C(=O)NC2(C(=O)O)CC2)sc(Cl)c1Cl [I.51] | 2.26^[a] | direct activity (inhibition of bacteria growth) [2]: no direct activity |
| Cc1c(C(=O)NC(C(=O)OC2CCOC2)C(C)C)sc(Br)c1Br (stereo not drawn) [I.19] | 3.78^[a] | direct activity (inhibition of bacteria growth) [2]: no direct activity |
| CCOC(=O)C(NC(=O)c1sc(Br)c(Br)c1C)C(C)C (stereo not drawn) [I.62] | 4.37^[a] |  |
| CCOC(=O)C(NC(=O)c1sc(Br)c(Br)c1C)c1ccccc1 (stereo not drawn) [I.76] | 4.44^[a] |  |
| Cc1c(C(=O)NC(C(=O)O)C(C)C)sc(Cl)c1Cl (stereo not drawn) [I.82] | 2.96^[a] |  |
| COC(=O)C1(NC(=O)c2sc(Cl)c(Cl)c2C)CC1 [I.50] |  | direct activity (inhibition of bacteria growth) [2]: no direct activity |
| O=C(O)c1sc(Cl)c(Cl)c1Br [VIIIa.03, 3-bromo-4,5-dichlorothiophene-2-carboxylic acid] |  | chromatographic logP [1, 3]: 2.52; chromatographic logP [1, 4]: 2.51 |
| CCOC(=O)C1(NC(=O)c2scc(Br)c2C)CC1 [IXa.01, ethyl 1-{[(4-bromo-3-methyl-2-thienyl)carbonyl]amino}cyclopropanecarboxylate] |  | chromatographic logP [1, 3]: 2.57 |
| Cc1c(C(=O)NCC(=O)OCc2ccccc2)sc(Cl)c1Cl [I.34] | 3.76^[a] | direct activity (inhibition of bacteria growth) [2]: no direct activity |
| COC(=O)[C@@H](CCSC)NC(=O)c1sc(Cl)c(Cl)c1C [I.36] | 3.55^[a] | direct activity (inhibition of bacteria growth) [2]: no direct activity |
| COC(=O)[C@@H](NC(=O)c1sc(Cl)c(Cl)c1C)C(C)C [I.29] | 3.79^[a] | direct activity (inhibition of bacteria growth) [2]: no direct activity |
| Cc1c(C(=O)NC(C(=O)OC2CS(=O)(=O)C2)C(C)C)sc(Br)c1Br (stereo not drawn) [I.18] | 3.42^[a] | direct activity (inhibition of bacteria growth) [2]: no direct activity |
| CC[C@H](C)[C@H](NC(=O)c1sc(Cl)c(Cl)c1C)C(=O)O [I.83] | 3.31^[a] |  |
| COC(=O)C(NC(=O)c1sc(Cl)c(Cl)c1C)C(C)C (stereo not drawn) [I.46] | 3.79^[a] | direct activity (inhibition of bacteria growth) [2]: no direct activity |
| CCOC(=O)C(Cc1ccccc1)NC(=O)c1sc(Br)c(Br)c1I (stereo not drawn) [VIa.14] | 4.93^[a] |  |
| CCOC(=O)C(NC(=O)c1sc(Cl)c(Cl)c1C)C(C)C (stereo not drawn) [I.40] |  | direct activity (inhibition of bacteria growth) [2]: no direct activity |
| CSCCC(NC(=O)c1sc(Cl)c(Cl)c1C)C(=O)O (stereo not drawn) [I.85] | 2.80^[a] |  |
| Cc1c(C(=O)NCC(=O)OC(C)C)sc(Br)c1Br [I.78] | 3.40^[a] |  |

| Compound | LogP [1, 3] | also measured |
| --- | --- | --- |
| CCCOC(=O)CNC(=O)c1sc(Cl)c(Cl)c1C [I.48] | 3.35^[a] | direct activity (inhibition of bacteria growth) [2]: no direct activity |
| COC(=O)c1sc(Cl)c(Cl)c1N [methyl 3-amino-4,5-dichlorothiophene-2-carboxylate] |  | chromatographic logP [1, 4]: 3.11 |
| CCOC(=O)C(CC(C)C)NC(=O)c1sc(Cl)c(Cl)c1I (stereo not drawn) [VIa.22] | 5.08^[a] |  |
| CCOC(=O)c1sc(NC(=O)OC(C)(C)C)c(Br)c1C [XIIIa.01] | 4.62^[a] |  |
| COC(=O)C(CCSC)NC(=O)c1sc(Br)c(Br)c1C (stereo not drawn) [I.70] | 3.69^[a] |  |
| CCOC(=O)C(Cc1ccccc1)NC(=O)c1sc(Br)c(Br)c1C (stereo not drawn) [I.65] | 4.59^[a] |  |
| CCOC(=O)C(Cc1ccccc1)NC(=O)c1sc(Br)cc1C (stereo not drawn) [IXa.04] | 3.90^[a] |  |
| CC[C@H](C)[C@H](NC(=O)c1sc(Br)c(Br)c1C)C(=O)OC [I.22] |  | direct activity (inhibition of bacteria growth) [2]: no direct activity |
| Cc1c(C(=O)NCC(=O)O)sc(Cl)c1Cl [I.80] | 2.05^[a] |  |
| Cc1c(C(=O)NC(C)C(=O)O)sc(Cl)c1Cl (stereo not drawn) [I.81] | 2.28^[a] |  |
| COC(=O)C(NC(=O)c1sc(Cl)c(Cl)c1C)C(C)C (stereo not drawn) [I.91] | 4.34^[a] |  |
| CCOC(=O)C(CCSC)NC(=O)c1sc(Cl)c(Cl)c1Br (stereo not drawn) [VIa.19] | 4.46^[a] |  |
| CCOC(=O)CNC(=O)c1sc(Cl)c(Cl)c1Br [VIa.01, ethyl N-[(3-bromo-4,5-dichloro-2-thienyl)carbonyl]glycinate] |  | chromatographic logP [1, 3]: 3.33; chromatographic logP [1, 4]: 3.33 |
| CCOC(=O)C1(NC(=O)c2sc(NC(=O)OC(C)(C)C)c(Br)c2C)CC1 [XIa.01, ethyl 1-[({4-bromo-5-[(tert-butoxycarbonyl)amino]-3-methyl-2-thienyl}carbonyl)amino]cyclopropanecarboxylate] |  | chromatographic logP ([1]; method [b]: LC-UV, neutral range, 0.001 molar ammonium acetate solution in water and acetonitrile as eluent): 3.44; chromatographic logP [1, 4]: 3.28 |
| CCOC(=O)C(CC(C)C)NC(=O)c1sc(Br)c(Br)c1I (stereo not drawn) [VIa.15] | 5.01^[a] |  |
| COC(=O)CNC(=O)c1sc(Br)c(Br)c1I [VIa.03] | 2.96^[a] |  |
| CCOC(=O)CNC(=O)c1sc(Br)c(Br)c1I [VIa.10] | 3.35^[a] |  |
| CCOC(=O)C(CCSC)NC(=O)c1sc(Br)c(Br)c1I (stereo not drawn) [VIa.16] | 4.37^[a] |  |
| CCOC(=O)C(Cc1ccccc1)NC(=O)c1sc(Cl)c(Cl)c1I (stereo not drawn) [VIa.24] | 5.00^[a] |  |
| O=C(O)CNC(=O)c1sc(Cl)c(Cl)c1I [VIa.13] | 2.21^[a] |  |
| CCOC(=O)C(CC(C)C)NC(=O)c1sc(Br)c(Br)c1C (stereo not drawn) [I.69] | 4.66^[a] |  |
| Cc1c(C(=O)NC(Cc2ccccc2)C(=O)O)sc(Cl)c1Cl (stereo not drawn) [I.86] | 3.31^[a] |  |
| CC[C@H](C)[C@H](NC(=O)c1sc(Br)c(Br)c1C)C(=O)O [I.89] | 3.37^[a] |  |
| CCOC(=O)CNC(=O)c1sc(Br)cc1C [IXa.02] | 2.39^[a] |  |

| Compound | LogP [1, 3] | also measured |
| --- | --- | --- |
| CCOC(=O)C1(NC(=O)c2sc(Cl)c(Cl)c2I)CC1 [VIa.05] | 3.39^[a] |  |
| COC(=O)CNC(=O)c1sc(Br)c(Br)c1C [I.09] |  | direct activity (inhibition of bacteria growth) [2]: no direct activity |
| CCOC(=O)C(NC(=O)c1sc(Br)cc1C)C(C)C (stereo not drawn) [IXa.03] | 3.65^[a] |  |
| CCOC(=O)[C@@H](NC(=O)c1sc(Cl)c(Cl)c1C)C(C)C [I.25] |  | direct activity (inhibition of bacteria growth) [2]: no direct activity |
| Cc1c(C(=O)O)sc(NC(=O)OC(C)(C)C)c1Br [XIIIa.02, 4-bromo-5-[(tert-butoxycarbonyl)amino]-3-methylthiophene-2-carboxylic acid] |  | chromatographic logP [1, 3]: 2.86 |
| CSCCC(NC(=O)c1sc(Br)c(Br)c1C)C(=O)O (stereo not drawn) [I.87] | 2.89^[a] |  |
| CCOC(=O)C(NC(=O)c1sc(Cl)c(Cl)c1C)C(C)C (stereo not drawn) [I.44] |  | direct activity (inhibition of bacteria growth) [2]: no direct activity |
| COC(=O)CNC(=O)c1sc(Cl)c(Cl)c1I [VIa.02] | 2.90^[a] |  |
| COC(=O)C(NC(=O)c1sc(Br)c(Br)c1C)C(C)C (stereo not drawn) [I.63] | 3.91^[a] |  |
| CCOC(=O)C(CC(C)C)NC(=O)c1sc(Cl)c(Cl)c1Br (stereo not drawn) [VIa.18] | 5.17^[a] |  |
| CCOC(=O)C1(NC(=O)c2scc(Br)c2C)CC1 [IXb.01] | 2.49^[a] |  |
| Cc1c(C(=O)NC(C(=O)OCC2CC2)C(C)C)sc(Br)c1Br (stereo not drawn) [I.52] |  | direct activity (inhibition of bacteria growth) [2]: no direct activity |
| Cc1c(C(=O)NC(CC(C)C)C(=O)O)sc(Cl)c1Cl (stereo not drawn) [I.84] | 3.31^[a] |  |
| CCOC(=O)C1(NC(=O)c2sc(N)c(Br)c2C)CC1 [Xa.01, ethyl 1-{[(5-amino-4-bromo-3-methyl-2-thienyl)carbonyl]amino}cyclopropanecarboxylate] |  | chromatographic logP [1, 3]: 1.97; chromatographic logP [1, 4]: 1.92 |
| Cc1c(C(=O)NC(Cc2ccccc2)C(=O)O)sc(Br)c1Br (stereo not drawn) [I.88] | 3.30^[a] |  |
| COC(=O)c1sc(Cl)c(Cl)c1Br [VIIIa.02, methyl 3-bromo-4,5-dichlorothiophene-2-carboxylate] |  | chromatographic logP [1, 3]: 4.11; chromatographic logP [1, 4]: 3.99 |
| Cc1c(C(=O)NC2(C(=O)O)CC2)sc(Br)c1Br [I.06] |  | direct activity (inhibition of bacteria growth) [2]: no direct activity |
| CCOC(=O)C(Cc1ccccc1)NC(=O)c1sc(Cl)c(Cl)c1Br (stereo not drawn) [VIa.20] | 5.01^[a] |  |
| CCOC(=O)CNC(=O)c1sc(Cl)c(Cl)c1I [VIa.12] | 3.31^[a] |  |
| CC/C=C\CCOC(=O)C(NC(=O)c1sc(Br)c(Br)c1C)C(C)C (stereo not drawn) [I.12] |  | direct activity (inhibition of bacteria growth) [2]: no direct activity |
| CCOC(=O)C(CCSC)NC(=O)c1sc(Cl)c(Cl)c1I (stereo not drawn) [VIa.23] | 4.40^[a] |  |
| CCOC(=O)C(NC(=O)c1sc(Cl)c(Cl)c1C)c1ccccc1 (stereo not drawn) [I.75] | 4.37^[a] |  |
| CCOC(=O)C(NC(=O)c1sc(Cl)c(Cl)c1Br)C(C)C (stereo not drawn) [VIa.17] | 4.88^[a] |  |
